Target: T1, enolase (Oryctolagus cuniculus, UniProt P25704)
T1 construct: gene ENO3; purified rabbit muscle enolase (Sigma)
Test: coupled pyruvate kinase/lactate dehydrogenase enzyme assay, NADH absorption at […] nm
Assay type: biochemical

T1 sequence (P25704 2-434): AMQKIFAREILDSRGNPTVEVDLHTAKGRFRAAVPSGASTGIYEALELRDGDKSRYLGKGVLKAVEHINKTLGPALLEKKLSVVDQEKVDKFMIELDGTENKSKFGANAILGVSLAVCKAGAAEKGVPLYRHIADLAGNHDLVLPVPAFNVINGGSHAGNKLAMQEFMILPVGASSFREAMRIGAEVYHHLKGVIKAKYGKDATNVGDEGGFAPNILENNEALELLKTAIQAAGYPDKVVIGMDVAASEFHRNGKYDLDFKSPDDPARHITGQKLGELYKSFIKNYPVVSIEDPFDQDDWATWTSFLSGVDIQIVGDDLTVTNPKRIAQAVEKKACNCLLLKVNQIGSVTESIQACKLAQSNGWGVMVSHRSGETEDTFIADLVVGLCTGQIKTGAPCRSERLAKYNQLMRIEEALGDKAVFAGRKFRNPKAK

Q: How did the Ki turn out when `O=C(O)COP(=O)(O)O` [phosphoglycolate] was run?
A: The Ki was about 160 µM.
